Compound | melting point
O=c1ccc(S(=O)(=O)c2cc3ccc(Cl)cc3[nH]2)n[nH]1 | > 250 °C
CCN(CC)C(=O)CCc1nc(-c2ccccc2)nc2ccc(Br)cc12 | 146 °C
CC(=O)Nc1nc2c(Oc3cc(-c4ccc(C(F)(F)F)cc4OCc4ccccc4)ncn3)cccc2s1 | 201 to 203 °C
C=C(C)c1nc(CCC)n(Cc2ccc(-c3ccccc3C(=O)C(=O)O)cc2)c1C(=O)O | 150 to 151 °C
COc1ccc(S(=O)(=O)CC(O)(CS(=O)(=O)c2ccc(F)cc2)C(=O)NO)cc1 (centres undefined) | 85 to 90 °C
Cc1sc(N2CCOCC2)nc1CCOc1ccc(C[C@H](Nc2ccccc2C(=O)c2ccccc2)C(=O)O)cc1 | 148 to 151 °C
O=c1oc2c([N+](=O)[O-])c(O)c(O)cc2cc1-c1ccccc1 | 195 to 210 °C
CCS(=O)(=O)Nc1ccc(Cc2ccc(NC3=NCCN3)cc2)cc1 | 178 °C
CN1C(=O)C(c2cccc(-c3cccnc3F)c2)(c2cc(C=NO)n(CCCF)c2)N=C1N (centres undefined) | 119 to 123 °C
CC(=O)c1ccc(C(C)=O)s1 | 171 to 173 °C
COC(=O)c1c(C)c(-c2cc(OC)c(Cl)cc2F)nn1C | 135 to 137 °C
C#CCOc1cc(-n2nc3ccc(Cl)cn3c2=O)c(F)cc1C#N | 209 to 211 °C
COC(=O)CCSC(SCCC(=O)OC)c1cccc(C=Cc2ccc3ccc(Cl)cc3n2)c1 | 53 °C
O=c1c2cc(F)c(F)cc2nc(C(S)c2ncnc3[nH]cnc23)n1-c1ccccc1Cl (centres undefined) | 208 °C
O=C1CCC(N2C(=O)c3cccc(NC(=O)COCc4ccccc4)c3C2=O)C(=O)N1 (centres undefined) | 204 to 206 °C
CN1CCN(c2ccc3nc(-c4ccc(F)cc4)c(I)n3n2)CC1 | 180 °C
CC(C)C(=O)NS(=O)(=O)c1cccc(N)c1 | 110 to 112 °C
O=C(CCc1ccc(Br)cc1)Cn1ccnc1 | 71 to 73 °C
CNC(=O)C(SC)c1cc(Cl)cc(C(=O)c2ccccc2)c1N (centres undefined) | 170 to 171 °C
COc1ccc(C2Sc3c(ccc4ccccc34)N(CCN(C)C)C(=O)C2OC(=O)c2ccc(O)c(O)c2)cc1 (centres undefined) | 146 to 148 °C
c1ccc(Cn2ccc3ccccc32)cc1 | 43 to 45 °C
Clc1cnc(Oc2cccc(C=C(Br)Br)c2)nc1 | 68 °C
O=C(CCCN1CCC(c2ccc(Cl)cc2)CC1)c1ccc(CN2CCCC2)cc1 | 63 to 65 °C

Compound | melting point
Cc1nc(N2CCN(Cc3ccc(OC(F)(F)F)cc3)C2=O)sc1C(=O)NCCc1cccnc1 | 172 to 173 °C
COc1cc(N2C(=O)c3ccccc3C2=O)c2nccc(C)c2c1Oc1cccc(C(F)(F)F)c1 | 228 to 230 °C
CC(C)COC(=O)C(C#N)=CNCc1ccco1 | 85 to 87 °C
O=c1nc(NCc2ccccc2)n2c3c1cnn3C(c1cccc(C(F)(F)F)c1)=CC2 | 220 to 224 °C
CCCCCCC1(CCn2ccnc2)SCCS1 | 110 to 116 °C
CCOC(=O)C1(CC(=O)Nc2cccnc2)N=C(c2ccc(Cl)cc2)c2c(sc(C)c2C)-n2c(C)nnc21 (centres undefined) | 133 to 135 °C
Cc1nc2c(OC3CCc4ccccc43)nccc2n1C (centres undefined) | 164 to 165 °C
CCOc1nc(=O)c2cc(C(F)(F)F)cc([N+](=O)[O-])c2s1 | 146 to 148 °C
Cc1ccc2c(C3CCN(CC#N)CC3)cn(-c3ccc(F)cc3)c2c1 | 101 to 103 °C
CC(C)(C(=O)O)c1nc2ccc(NCCCN3CCN(C(c4ccccc4)c4ccccc4)CC3)nn2c1Cl | 184 to 186 °C
O=C(O[C@@H]1CC[C@H]1Cl)c1ccccc1 (relative stereo) | 20 °C
O=C(O)c1ccc(-c2ccc(Cl)cc2)cc1 | 191 to 192 °C
CC(=O)Nc1ccc(-c2nc(C(=O)Nc3nccs3)c(-c3ccccc3C)[nH]2)cc1 | 269 to 271 °C
COc1ccc(-c2nc(-c3ccccc3)nc(-c3ccccc3)n2)c(O)c1 | 211 to 212 °C
CN(O)C(=O)c1ccccc1Nc1c(Cl)cccc1Cl | 137 to 140 °C
O=C(c1ccc(Cl)cc1)N1CCC(=Cc2ccc(C3=NCCO3)cc2F)CC1 | 150 to 152 °C
O=[N+]([O-])c1ccc(-c2ccc3nncn3n2)cc1C(F)(F)F | 129 to 135 °C
COC(=O)c1ccc(-c2ccc(C#N)cc2)nc1 | 142 to 144 °C
COP(=O)(OC)C(O)=Cc1ccc2c(c1)C(=O)Cc1ccccc1O2 | 118 °C
C=C(OC(=O)c1ccc(C(C)(C)C)cc1)c1ccc(OC)cc1 | 87 to 89 °C
O=C1N=c2ccc(C3(c4nc5ccc(-c6ccccc6)cc5[nH]4)N=c4ccccc4=N3)cc2=NC1=O | > 280 °C
Cc1nc(Nc2c([N+](=O)[O-])cc([N+](=O)[O-])cc2C(F)(F)F)c(Cl)c(C)c1Cl | 131 to 133 °C

Other lines, results leading:

melting point | Compound
115 to 116 °C | CCc1c(C(=O)c2cc(C)cc(C)c2)n(COCc2ccccc2)c(=O)[nH]c1=O
103 to 105 °C | CCOC(=O)Cc1nc(-c2cc(C(C)(C)C)c(O)c(C(C)(C)C)c2)oc1C
116 to 117 °C | COC(=O)c1cc2c(nc1C)C(COC(=O)Oc1ccc([N+](=O)[O-])cc1)CCCC2 (centres undefined)
134 °C | CCSCC1=C(O)CC(C)(C)CC1=O
144 to 145 °C | Cc1cc(O)c(S(=O)(=O)Cc2ccc(Cl)c(Cl)c2)c(=O)o1
129 to 131 °C | COC(=O)C1=C(C)NC(C)=C(C(=O)OCCCCCCCCN)C1c1cccc([N+](=O)[O-])c1 (centres undefined)
100 to 102 °C | CC(C)(C)OC(=O)CN1CCN(CC(=O)OC(C)(C)C)C1=O
268 to 271 °C | Cc1ccc2[nH]c(=O)n(C(C)(C)C(=O)O)c(=O)c2c1
153 to 156 °C | CN(C)S(=O)(=O)c1ccc(NC(=O)C2(C)CC2)cc1C(F)(F)F
157 to 158 °C | CCOC(=O)COn1c2c([nH]c(=O)c1=O)CCC1=C2C=C(n2c(C)ccc2C)CC1
121 to 127 °C | CC(C)(C)OC(=O)c1cnc(NC(=O)[C@H](CC2CCCC2)c2ccc(S(C)(=O)=O)c(Cl)c2)cn1
184 °C | CCN1CCC(C(=O)O)(S(=O)(=O)c2ccc(Oc3ccc(Cl)cc3)cc2)CC1
85 to 86 °C | CSc1cc(C(=O)CBr)ccc1C
30 °C | CCC(=O)OC1(C)CCCC2C3C=CC(C3)C21 (centres undefined)
254 °C | CCc1cc(=O)c(C(N)=O)c(CC)[nH]1
139 to 141 °C | CC(C)(C)n1nnc(Cc2ccc(CCC(=O)O)cc2)n1
55 to 56 °C | CCN(CC)C(=O)n1nc(C(C)(C)C)cc1SC
237 to 239 °C | CN1CC[C@@H](c2c(O)cc(O)c3c(=O)cc(-c4ccc(C#N)cc4Cl)oc23)[C@@H]1CO
96 to 98 °C | COc1cc(C(C)=O)ccc1NCCCN1CCC(c2noc3cc(F)ccc23)CC1
98 to 99.5 °C | COC(=O)C(C)c1ccc2c(c1)C(=O)Cc1cccnc1S2 (centres undefined)
132 to 133 °C | COC1(C)CSC2C(NC(=O)Cc3ccccc3)C(=O)N2C1C(=O)OCC(Cl)(Cl)Cl (centres undefined)
182 to 184 °C | CCCn1cnc(C(N)=O)c1NC(=O)c1ccccc1OCC
205 to 207 °C | COc1ccc(COc2cccc3c2CN(C2CCC(=O)NC2=O)C3=O)cc1OC (centres undefined)
238 °C | CC12CCC(CC1=C=C1C=CC(Nc3nc(Cl)nc(Cl)n3)=CC1)C2(C)C (centres undefined)

Reference: a melting point compilation (Tetko et al.; mined from patent text by program, amines drawn as free bases though some values may be those of a salt)
